# In patent publication US20230117205A1, “B7-H4 ANTIBODY-DRUG CONJUGATES FOR THE TREATMENT OF CANCER” (SEAGEN INC., priority 2021, published 2023):
# System: F4/80+ macrophages in MDA-MB-468 xenograft tumors
# Test: IHC for F4/80+ macrophages in MDA-MB-468 xenograft tumors
# Format: in vivo, NSG mice
# Conditions: single 3 mg/kg dose; 7 days after treatment
# Method: Specifically, female NSG mice were implanted with 1×10^6 MDA-MB-468 cells in 25% Matrigel H C subcutaneously. Once tumor volumes reached ˜250-300 mm^3, mice were randomized into treatment groups of 6 mice each and treated with a single 3 mg/kg dose of ADC or mAb, or vehicle control (20 mM Histidine buffer, pH 6.0) injected intraperitoneally (i.p.). Stock concentrations of ADC were diluted to desired concentration with 20 mM Histidine buffer, pH 6.0 or and stock concentration of mAb were diluted to desired concentration with 0.01% Tween20 in PBS. Twenty-four hours prior to dosing, each animal was treated with 10 mg/kg hIVIG. One week following treatment, tumors were harvested, cut in half, and processed for RNAseq (frozen at −80° C.) or formalin-fixed and paraffin-embedded for immunohistochemical (IHC) analysis.
# For IHC, FFPE blocks were sectioned at 4 μm and sections were placed on charged slides. Slides were baked for 1 hr at 60° C. […]
# Scanned images were analyzed with Halo image analysis software v. 3.1.1076 (Indica Labs), using the area quantification algorithm for CD11c and F4/80 and the cytonuclear algorithm for all other antibodies. […] Percent area of positive tissue, tumor and stroma were determined. […]
substance,measurement,value
SGN-B7H4V: ADC of fully human IgG1 anti-B7-H4 mAb conjugated to monomethyl auristatin E (MMAE) via a protease-cleavable valine-citrulline linker (vedotin),proportion of F4/80+ macrophages in tumor nest and stroma,increase in the proportion of F4/80+ macrophages
